Measured values reported in US6737383B1, “Herbicidal oxadiazolidines” (priority 1999, dated 2004).

Columns and labels:
morningglory = assay: Test B pre/postemergence morningglory; assay type: in vivo, Ipomoea hederacea; details: Preemergence
Outline: (§1)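 Test chemicals in a non-phytotoxic solvent mixture with surfactant were sprayed preemergence onto planted seeds and postemergence onto plants 2 to 18 cm tall (1- to 4-leaf stage). After twelve to sixteen days in a greenhouse, injury was visually rated against untreated controls from 0 (no effect) to 10 (complete control).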

giant foxtail = assay: Test B pre/postemergence giant foxtail; assay type: in vivo, Setaria faberii; details: Preemergence
Outline: as §1

purple nutsedge = assay: Test B pre/postemergence purple nutsedge; assay type: in vivo, Cyperus rotundus; details: Preemergence, scale of 0 to 10 where 0 is no effect and 10 is complete control
Outline: as §1

rape = assay: Test B pre/postemergence rape; assay type: in vivo, Brassica napus; details: Preemergence
Outline: as §1

velvetleaf = assay: Test B pre/postemergence velvetleaf; assay type: in vivo, Abutilon theophrasti; details: Preemergence
Outline: as §1

blackgrass = assay: Test B pre/postemergence blackgrass; assay type: in vivo, Alopecurus myosuroides; details: Preemergence
Outline: as §1

wild oat = assay: Test B pre/postemergence wild oat; assay type: in vivo, Avena fatua; details: Preemergence
Outline: as §1

surinam grass = assay: Test B pre/postemergence surinam grass; assay type: in vivo, Brachiaria decumbens; details: Preemergence
Outline: as §1

corn = assay: Test B pre/postemergence corn; assay type: in vivo, Zea mays; details: Preemergence
Outline: as §1

bedstraw = assay: Test B pre/postemergence bedstraw; assay type: in vivo, Galium aparine; details: Preemergence
Outline: as §1

pigweed = assay: Test B pre/postemergence pigweed; assay type: in vivo, Amaranthus retroflexus; details: Preemergence
Outline: as §1

crabgrass = assay: Test B pre/postemergence crabgrass; assay type: in vivo, Digitaria sanguinalis; details: Preemergence
Outline: as §1

wheat = assay: Test B pre/postemergence wheat; assay type: in vivo, Triticum aestivum; details: Preemergence
Outline: as §1

cocklebur = assay: Test B pre/postemergence cocklebur; assay type: in vivo, Xanthium strumarium; details: Preemergence
Outline: as §1

soybean = assay: Test B pre/postemergence soybean; assay type: in vivo, Glycine max; details: Preemergence
Outline: as §1

sugar beet = assay: Test B pre/postemergence sugar beet; assay type: in vivo, Beta vulgaris; details: Preemergence
Outline: as §1

[1] = Rate 62 g/ha, scale of 0 to 10 where 0 is no effect and 10 is complete control
[2] = Rate 125 g/ha, scale of 0 to 10 where 0 is no effect and 10 is complete control
[3] = Rate 250 g/ha, scale 0 to 10 (0 no effect, 10 complete control)
[4] = Rate 500 g/ha, scale of 0 to 10 where 0 is no effect and 10 is complete control

## CC(C)N(C(=O)n1oc(=O)n(CCF)c1=O)c1ccccc1 [Compound 669]
morningglory; [1]
  Morningglory plant response rating: 0
morningglory; [2]
  Morningglory plant response rating: 0
morningglory; [3]
  Plant response rating, Morningglory: 0
morningglory; [4]
  Plant response rating, Morningglory: 0
Giant foxtail; [1]
  Giant foxtail plant response rating: 9
Giant foxtail; [2]
  Giant foxtail plant response rating: 9
Giant foxtail; [3]
  Plant response rating, Giant foxtail: 10
Giant foxtail; [4]
  Plant response rating, Giant foxtail: 10
Purple nutsedge; Rate 62 g/ha
  Nutsedge plant response rating: 0
Purple nutsedge; Rate 500 g/ha
  Plant response rating, Nutsedge: 6
rape; [1]
  Rape plant response rating: 2
rape; [2]
  Rape plant response rating: 4
rape; [3]
  Plant response rating, Rape: 8
rape; [4]
  Plant response rating, Rape: 9
velvetleaf; [1]
  Velvetleaf plant response rating: 0
velvetleaf; [2]
  Velvetleaf plant response rating: 0
velvetleaf; [3]
  Plant response rating, Velvetleaf: 0
velvetleaf; [4]
  Plant response rating, Velvetleaf: 0
blackgrass; [1]
  Blackgrass plant response rating: 9
blackgrass; [2]
  Blackgrass plant response rating: 10
blackgrass; [3]
  Plant response rating, Blackgrass: 10
blackgrass; [4]
  Plant response rating, Blackgrass: 10
Wild oat; [1]
  Wild oats plant response rating: 10
Wild oat; [2]
  Wild oats plant response rating: 10
Wild oat; [3]
  Plant response rating, Wild oats: 10
Wild oat; [4]
  Plant response rating, Wild oats: 10
Surinam grass; [1]
  B. signalgrass plant response rating: 8
Surinam grass; [2]
  B. signalgrass plant response rating: 8
Surinam grass; [3]
  Plant response rating, B. signalgrass: 10
Surinam grass; [4]
  Plant response rating, B. signalgrass: 10
corn; [1]
  Corn plant response rating: 2
corn; [2]
  Corn plant response rating: 9
corn; [3]
  Plant response rating, Corn: 9
corn; [4]
  Plant response rating, Corn: 9
bedstraw; [1]
  Bedstraw plant response rating: 0
bedstraw; [2]
  Bedstraw plant response rating: 7
bedstraw; [3]
  Plant response rating, Bedstraw: 9
bedstraw; [4]
  Plant response rating, Bedstraw: 9
pigweed; [1]
  Redroot pigweed plant response rating: 6
pigweed; [2]
  Redroot pigweed plant response rating: 10
pigweed; [3]
  Plant response rating, Redroot pigweed: 10
pigweed; [4]
  Plant response rating, Redroot pigweed: 10
crabgrass; [1]
  Crabgrass plant response rating: 9
crabgrass; [2]
  Crabgrass plant response rating: 9
crabgrass; [3]
  Plant response rating, Crabgrass: 9
crabgrass; [4]
  Plant response rating, Crabgrass: 10
wheat; [1]
  Wheat plant response rating: 6
wheat; [2]
  Wheat plant response rating: 5
wheat; [3]
  Plant response rating, Wheat: 8
wheat; [4]
  Plant response rating, Wheat: 8
cocklebur; [1]
  Cocklebur plant response rating: 0
cocklebur; [2]
  Cocklebur plant response rating: 0
cocklebur; [3]
  Plant response rating, Cocklebur: 0
cocklebur; [4]
  Plant response rating, Cocklebur: 0
soybean; [1]
  Soybean plant response rating: 0
soybean; [2]
  Soybean plant response rating: 2
soybean; [3]
  Plant response rating, Soybean: 3
soybean; [4]
  Plant response rating, Soybean: 6
Sugar beet; [1]
  Sugarbeets plant response rating: 6
Sugar beet; [2]
  Sugarbeets plant response rating: 8
Sugar beet; [3]
  Plant response rating, Sugarbeets: 8
Sugar beet; [4]
  Plant response rating, Sugarbeets: 9
